Source: patent US20240398771A1, “TREATMENT OF SCLERODERMA AND RAYNAUD'S SYNDROME” (Aisa Pharma, Inc., priority 2023, published 2024)

How the values were obtained:
participants with SSc-RP [1] = assay: Average duration of weekly RP attacks, all attacks (minutes); type: in vivo, human
From the text: The relevant metrics measured by this tool daily are: • Study medication • SSc-RP symptoms (Reporting an attack including duration of attack) • Severity of the attack considering all symptoms of the attack e.g. tingling, numbness, pain, color changes (VAS 0-10 cm scale) • Participant's location at the time of the attack (inside home/outside home) • Selecting symptoms experienced during the attack (tingling, numbness, pain, color changes, other) • Pain rating during the attack (11-point Likert scale) • The RCS based on how much difficulty participants had with Raynaud's today, how many attacks the participant had, and how long they lasted. Participants will also be asked to consider how much pain, numbness, or other symptoms the Raynaud's caused in fingers (including painful sores), and how much the Raynaud's alone affected the use of hands today (VAS 0-10 cm scale).
The absolute change in average duration of weekly RP attacks from baseline to the end of each dosing period was and will be a secondary outcome variable. The sponsor-developed participant-informed diary was and will be used to record data. Average duration of weekly RP attacks is defined as the total duration of RP attacks divided by total number of RP attacks within the last 7 days of each dosing period. Total duration of RP attacks during the last 7 days of screening period divided by the total number of RP attacks will be used as baseline for the analysis of all periods. The variable will be calculated similar to frequency data as before.

participants with SSc-RP [2] = assay: SHAQ Alternative Disability Index; type: in vivo, human; details: Tadalafil 5 mg; Modified ITT, Part A
From the text: The standard, validated, patient reported outcome measures tool for SSc patients, the Scleroderma Health Assessment Questionnaire (SHAQ), will be used to assess the participant qualify of life. Details are attached in the Appendix. The participant quality of life will be scored, and a disability index calculated for each questionnaire completed by the patient at Screening and each in-clinic visit. The absolute change in participant quality of life from baseline to the end of each dosing period will be calculated similar to frequency data as before.
The SHAQ is used to calculate a Disability Index to assess the participant qualify of life. The eight categories assessed by the Disability Index are 1) dressing and grooming, 2) arising, 3) eating, 4) walking, 5) hygiene, 6) reach, 7) grip, and 8) common daily activities. For each of these categories, patients report the amount of difficulty they have in performing two or three specific activities.
There are four possible responses for the Disability Index questions: • Without any difficulty=0 • With some difficulty=1 • With much difficulty=2 • Unable to do=3 • The highest score reported by the patient for any component question of the eight categories determines the score for that category. • If a component question is left blank or the response is too ambiguous to assign a score, then the score for that category is determined by the remaining completed question(s). • If all component questions are blank or if more than one answer is given, then follow up with the respondent is required. • If the respondent's mark is between the response columns, then move it to the closest one. If it's directly between the two, move it to the higher one.
The scoring variables and scoring rules permit the computation of two disability indices, the Standard Disability Index and the Alternative Disability Index.
The aid and device variables are not used to calculate the alternative disability index; it is calculated by adding the scores for each of the categories and dividing by the number of categories answered. This gives a score in the 0 to 3 range.

[3] = Excluding Outliers, ITT Population - Part A (Table B-6), last 7 days of dosing period
[4] = Excluding Outliers, ITT Population - Part A (Table B-6), last 7 days of screening period
[5] = ITT Population - Part A (Table B-5), last 7 days of dosing period
[6] = ITT Population - Part A (Table B-5), last 7 days of screening period

Compound: CN1CC(=O)N2[C@H](c3ccc4c(c3)OCO4)c3[nH]c4ccccc4c3C[C@@H]2C1=O [Tadalafil]
- Average Duration of weekly RP attacks (All Attacks), Max (participants with SSc-RP [1]; [3]): 5.9, 5.9 minutes
- Average Duration of weekly RP attacks (All Attacks), Min (participants with SSc-RP [1]; [3]): 5.9, 5.9 minutes
- Average Duration of weekly RP attacks (All Attacks), Q1 (participants with SSc-RP [1]; [3]): 5.95, 5.95 minutes
- Average duration of weekly RP attacks (All Attacks), Change from Baseline, Max (participants with SSc-RP [1]; [3]): −5.0, −5.0 minutes
- Average duration of weekly RP attacks (All Attacks), Change from Baseline, Min (participants with SSc-RP [1]; [3]): −5.0, −5.0 minutes
- Average duration of weekly RP attacks (All Attacks), Percent Change from Baseline, Max (participants with SSc-RP [1]; [3]): −45.6, −45.6%
- Average duration of weekly RP attacks (All Attacks), Percent Change from Baseline, Min (participants with SSc-RP [1]; [3]): −45.6, −45.6%
- Average duration of weekly RP attacks (All Attacks), Baseline, Max (participants with SSc-RP [1]; [4]): 10.9, 10.9 minutes
- Average duration of weekly RP attacks (All Attacks), Baseline, Min (participants with SSc-RP [1]; [4]): 10.9, 10.9 minutes
- Average duration of weekly RP attacks (All Attacks), Baseline, Q1 (participants with SSc-RP [1]; [4]): 10.92, 10.92 minutes
- Average duration of weekly RP attacks (All Attacks), Baseline, Q3 (participants with SSc-RP [1]; [4]): 10.92, 10.92 minutes
- Average Duration of weekly RP attacks (All Attacks) (participants with SSc-RP [1]; [5]): 5.9 min
- Average Duration of weekly RP attacks (All Attacks), Max (participants with SSc-RP [1]; [5]): 818.6 min
- Average Duration of weekly RP attacks (All Attacks), Q1 (participants with SSc-RP [1]; [5]): 5.95 min
- Average Duration of weekly RP attacks (All Attacks), Q3 (participants with SSc-RP [1]; [5]): 818.57 min
- Average duration of weekly RP attacks (All Attacks), Change from Baseline (participants with SSc-RP [1]; [5]): -5.0 min
- Average duration of weekly RP attacks (All Attacks), Change from Baseline, Max (participants with SSc-RP [1]; [5]): 188.6 min
- Average duration of weekly RP attacks (All Attacks), Change from Baseline, Mean (participants with SSc-RP [1]; [5]): 91.80 min
- Average duration of weekly RP attacks (All Attacks), Change from Baseline, Median (participants with SSc-RP [1]; [5]): 91.80 min
- Average duration of weekly RP attacks (All Attacks), Change from Baseline, Q3 (participants with SSc-RP [1]; [5]): 188.57 min
- Average duration of weekly RP attacks (All Attacks), Percent Change from Baseline, Max (participants with SSc-RP [1]; [5]): 29.9%
- Average duration of weekly RP attacks (All Attacks), Percent Change from Baseline, Mean (participants with SSc-RP [1]; [5]): −7.81%
- Average duration of weekly RP attacks (All Attacks), Percent Change from Baseline, Median (participants with SSc-RP [1]; [5]): −7.81%
- Average duration of weekly RP attacks (All Attacks), Percent Change from Baseline, Min (participants with SSc-RP [1]; [5]): −45.6%
- Average duration of weekly RP attacks (All Attacks), Percent Change from Baseline, Q3 (participants with SSc-RP [1]; [5]): 29.93%
- Average duration of weekly RP attacks (All Attacks), Baseline (participants with SSc-RP [1]; [6]): 10.9 min
- Average duration of weekly RP attacks (All Attacks), Baseline, Max (participants with SSc-RP [1]; [6]): 630.0 min
- Average duration of weekly RP attacks (All Attacks), Baseline, Q1 (participants with SSc-RP [1]; [6]): 10.92 min
- Average duration of weekly RP attacks (All Attacks), Baseline, Q3 (participants with SSc-RP [1]; [6]): 630.00 min
- Alternative disability index, Baseline, Mean (participants with SSc-RP [2]): 0.688
- Alternative disability index, Change from Baseline, Mean (participants with SSc-RP [2]): −0.071
- Alternative disability index, Change from Baseline, Median (participants with SSc-RP [2]): −0.063
- Alternative disability index, In Clinic Visit (Day 12), Mean (participants with SSc-RP [2]): 0.616
- Alternative disability index, In Clinic Visit (Day 12), Median (participants with SSc-RP [2]): 0.482
- Alternative disability index, Percent Change from Baseline, Mean (participants with SSc-RP [2]): 21.25%
- Alternative disability index, Percent Change from Baseline, Median (participants with SSc-RP [2]): −7.69%
